Drawing on US10941152B2, “Pyrazole compounds as modulators of FSHR and uses thereof” (TOCOPHERX, INC., priority 2014, dated 2021), this text covers EC50 for 18 compounds.

Where only a bound is given, the exact number is not on record here.

The target in assay [1] is T1, FSHR (Homo sapiens, UniProt P23945).
T1 construct: expressed in transfected cells; host or cells: CHO (Cho-FSHR-LUC-1-1-43)
T1 sequence (P23945 18-695): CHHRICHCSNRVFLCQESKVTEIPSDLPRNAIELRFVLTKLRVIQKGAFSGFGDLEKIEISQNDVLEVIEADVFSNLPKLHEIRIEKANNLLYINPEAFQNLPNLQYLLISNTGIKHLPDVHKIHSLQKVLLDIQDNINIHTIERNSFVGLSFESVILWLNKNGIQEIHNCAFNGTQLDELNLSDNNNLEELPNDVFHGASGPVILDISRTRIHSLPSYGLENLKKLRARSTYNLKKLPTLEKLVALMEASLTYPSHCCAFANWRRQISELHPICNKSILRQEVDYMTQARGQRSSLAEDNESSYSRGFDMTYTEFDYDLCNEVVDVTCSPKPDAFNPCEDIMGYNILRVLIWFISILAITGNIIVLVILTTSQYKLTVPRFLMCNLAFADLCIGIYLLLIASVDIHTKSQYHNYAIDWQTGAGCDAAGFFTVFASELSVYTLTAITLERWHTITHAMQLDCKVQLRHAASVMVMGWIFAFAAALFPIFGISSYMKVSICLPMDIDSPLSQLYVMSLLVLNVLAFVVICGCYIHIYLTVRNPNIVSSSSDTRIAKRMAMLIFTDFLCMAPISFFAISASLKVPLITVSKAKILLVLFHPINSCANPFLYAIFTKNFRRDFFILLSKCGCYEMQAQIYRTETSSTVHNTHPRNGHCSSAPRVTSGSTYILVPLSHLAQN
The experiment in a line: EC50 of cyclic AMP production in CHO FSHR cells + EC20 FSH (Assay A). The format is cell-based. As to conditions: cyclic AMP production in CHO FSHR cells + EC20 FSH (0.265 pM), HTRF. The essentials: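 CHO cells expressing FSHR, stimulated 1 h at 37° C with compound plus EC20 FSH (0.265 pM final) and 200 μM IBMX. cAMP measured by HTRF (665/620 nm ratio) after 1 h at room temperature; effect expressed relative to maximum response of FSH standard.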

Assay [2] addresses T2, follicle-stimulating hormone (FSH) receptor (Rattus norvegicus, UniProt P20395).
T2 construct: endogenous in cells; host or cells: rat granulosa cells
T2 sequence (P20395 18-692): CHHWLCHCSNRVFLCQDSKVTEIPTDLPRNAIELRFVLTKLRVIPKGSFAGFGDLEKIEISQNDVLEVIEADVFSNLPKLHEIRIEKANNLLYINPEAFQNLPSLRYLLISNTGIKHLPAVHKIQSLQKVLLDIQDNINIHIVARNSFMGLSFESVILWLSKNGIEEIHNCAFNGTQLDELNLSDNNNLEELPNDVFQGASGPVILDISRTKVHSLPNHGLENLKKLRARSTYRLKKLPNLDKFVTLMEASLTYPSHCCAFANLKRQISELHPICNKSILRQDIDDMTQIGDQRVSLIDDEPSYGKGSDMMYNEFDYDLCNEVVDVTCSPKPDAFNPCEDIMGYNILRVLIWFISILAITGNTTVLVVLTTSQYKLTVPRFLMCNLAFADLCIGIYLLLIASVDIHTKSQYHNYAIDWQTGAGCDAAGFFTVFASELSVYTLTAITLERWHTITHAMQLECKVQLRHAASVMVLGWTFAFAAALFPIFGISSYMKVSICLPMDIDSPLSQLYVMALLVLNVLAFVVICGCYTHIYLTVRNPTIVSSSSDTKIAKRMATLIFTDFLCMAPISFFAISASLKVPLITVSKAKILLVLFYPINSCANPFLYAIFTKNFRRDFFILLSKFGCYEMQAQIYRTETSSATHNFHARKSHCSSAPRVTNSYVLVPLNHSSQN
The experiment in a line: Rat granulosa EC50 FSH (Assay B). It counts as cell-based. The method, then:
Example 25. Rat granulosa EC50 FSH (Assay B)
The assay was performed pursuant to the teaching of Yanofsky et al. (2006) Allosteric activation of the follicle-stimulating hormone (FSH) receptor by selective, nonpeptide agonists (JBC 281(19): 13226-13233, which is incorporated by reference in the disclosure of the invention).

`COc1cc2c(cc1-c1ccn(C)n1)-c1c(c(C(=O)N(C)C(C)(C)C)nn1-c1cc(F)cc(F)c1)CO2` [Compound 48, N-tert-butyl-1-(3,5-difluorophenyl)-7-methoxy-N-methyl-8-(1-methyl-1H-pyrazol-3-yl)-1,4-dihydrochromeno[4,3-c]pyrazole-3-carboxamide]: the values for the EC50 in assay [1] and in assay [2] were 10 to 100 nM and 101 to 500 nM, respectively.

For the compound `COc1cc(F)cc(-n2nc(C(=O)N3CCOCC3(C)C)c3c2-c2cc(-c4cnn(CC(N)=O)c4)c(OC)cc2OC3)c1` [Compound 73, 2-(4-(3-(3,3-dimethylmorpholine-4-carbonyl)-1-(3-fluoro-5-methoxyphenyl)-7-methoxy-1,4-dihydrochromeno[4,3-c]pyrazol-8-yl)-1H-pyrazol-1-yl)acetamide], the EC50 in assay [1] is less than 10 nM; in assay [2] it was 101 to 500 nM.

Turning to `COc1cc2c(cc1-c1cnn(CCO)c1)-c1c(c(C(=O)N(C)C(C)(C)C)nn1-c1cc(Cl)cc(Cl)c1)CO2` [Compound 1, N-tert-butyl-1-(3,5-dichlorophenyl)-8-(1-(2-hydroxyethyl)-1H-pyrazol-4-yl)-7-methoxy-N-methyl-1,4-dihydrochromeno[4,3-c]pyrazole-3-carboxamide], the concentration giving a half-maximal response (EC50) in assay [1] is less than 10 nM; in assay [2] it was 10 to 100 nM.

For the compound `COc1cc2c(cc1-c1cnn(CCO)c1)-c1c(c(C(=O)N(C)C(C)(C)C)nn1-c1ccsc1)CO2` [Compound 76, N-tert-butyl-8-(1-(2-hydroxyethyl)-1H-pyrazol-4-yl)-7-methoxy-N-methyl-1-(thiophen-3-yl)-1,4-dihydrochromeno[4,3-c]pyrazole-3-carboxamide], the values for the EC50 in assay [1] and in assay [2] were 10 to 100 nM and more than 500 nM, respectively.

With `COc1cc2c(cc1-c1ccccn1)-c1c(c(C(=O)N3CCC(O)CC3(C)C)nn1-c1cc(Cl)cc(Cl)c1)CO2` (stereo not drawn) [Compound 10, (1-(3,5-dichlorophenyl)-7-methoxy-8-(pyridin-2-yl)-1,4-dihydrochromeno[4,3-c]pyrazol-3-yl)(4-hydroxy-2,2-dimethylpiperidin-1-yl)methanone], the EC50 in assay [1] was less than 10 nM; in assay [2], 10 to 100 nM.

`COc1cc2c(cc1-c1cc(=O)[nH][nH]1)-c1c(c(C(=O)N(C)C(C)(C)C)nn1-c1ccsc1)CO2` [Compound 185, N-tert-butyl-7-methoxy-N-methyl-8-(5-oxo-2,5-dihydro-1H-pyrazol-3-yl)-1-(thiophen-3-yl)-1,4-dihydrochromeno[4,3-c]pyrazole-3-carboxamide]: the results for the EC50 in assay [1] and in assay [2] were 10 to 100 nM and 101 to 500 nM, respectively.

As to `COc1cc(OC)cc(-n2nc(C(=O)N3CCOCC3(C)C)c3c2-c2cc(-c4cncc(C(N)=O)c4)c(OC)cc2OC3)c1` [Compound 159], the EC50 in assay [1] is less than 10 nM; in assay [2], 10 to 100 nM.

`COc1cc2c(cc1-c1cccc(F)c1C#N)-c1c(c(C(=O)N(C)C(C)(C)C)nn1-c1cc(Cl)cc(Cl)c1)CO2` [Compound 25, N-tert-butyl-8-(2-cyano-3-fluorophenyl)-1-(3,5-dichlorophenyl)-7-methoxy-N-methyl-1,4-dihydrochromeno[4,3-c]pyrazole-3-carboxamide]: the concentration giving a half-maximal response (EC50) in assay [1] is less than 10 nM; in assay [2], 10 to 100 nM.

In the case of `COc1cc2c(cc1-c1cc(F)cc(C(N)=O)c1)-c1c(c(C(=O)N(C)C(C)(C)C)nn1-c1cc(Cl)cc(Cl)c1)CO2` [Compound 97, N-tert-butyl-8-(3-carbamoyl-5-fluorophenyl)-1-(3,5-dichlorophenyl)-7-methoxy-N-methyl-1,4-dihydrochromeno[4,3-c]pyrazole-3-carboxamide], the EC50 in assay [1] and in assay [2] was less than 10 nM throughout.

For `COc1cc2c(cc1-c1cc(C(=O)O)ccc1F)-c1c(c(C(=O)N(C)C(C)(C)C)nn1-c1cc(Cl)cc(Cl)c1)CO2` [Compound 82, 3-(3-(tert-butyl(methyl)carbamoyl)-1-(3,5-dichlorophenyl)-7-methoxy-1,4-dihydrochromeno[4,3-c]pyrazol-8-yl)-4-fluorobenzoic acid], the 50% effective concentration (EC50) was less than 10 nM in assay [1] and more than 500 nM in assay [2].

For `COC(=O)Cn1nc(C)c(-c2cc3c(cc2OC)OCc2c(C(=O)N(C)C(C)(C)C)nn(-c4cc(Cl)cc(Cl)c4)c2-3)c1C` [Compound 138, methyl 2-(4-(3-(tert-butyl(methyl)carbamoyl)-1-(3,5-dichlorophenyl)-7-methoxy-1,4-dihydrochromeno[4,3-c]pyrazol-8-yl)-3,5-dimethyl-1H-pyrazol-1-yl)acetate], the concentration giving a half-maximal response (EC50) in assay [1] was less than 10 nM; in assay [2] it was 101 to 500 nM.

Regarding `COc1cc2c(cc1-c1c(C)nn(CC(=O)N(C)C)c1C)-c1c(c(C(=O)N(C)C(C)(C)C)nn1-c1cc(Cl)cc(Cl)c1)CO2` [Compound 136, N-tert-butyl-1-(3,5-dichlorophenyl)-8-(1-(2-(dimethylamino)-2-oxoethyl)-3,5-dimethyl-1H-pyrazol-4-yl)-7-methoxy-N-methyl-1,4-dihydrochromeno[4,3-c]pyrazole-3-carboxamide], the EC50 in assay [1] was less than 10 nM; in assay [2], 10 to 100 nM.

With `COc1cc2c(cc1-c1cnn(CC(=O)N3CCC3)c1)-c1c(c(C(=O)N(C)C(C)(C)C)nn1-c1cc(Cl)cc(Cl)c1)CO2` [Compound 95, 8-(1-(2-(azetidin-1-yl)-2-oxoethyl)-1H-pyrazol-4-yl)-N-tert-butyl-1-(3,5-dichlorophenyl)-7-methoxy-N-methyl-1,4-dihydrochromeno[4,3-c]pyrazole-3-carboxamide], the EC50 in assay [1] and in assay [2] was 10 to 100 nM in each case.

For `COc1cc2c(cc1-c1cccc(C(N)=O)c1)-c1c(c(C(=O)N(C)C(C)(C)C)nn1-c1cc(Cl)cc(Cl)c1)CO2` [Compound 172], the concentration giving a half-maximal response (EC50) was less than 10 nM in assay [1] and 10 to 100 nM in assay [2].

For the compound `COc1cc2c(cc1-c1cccnc1F)-c1c(c(C(=O)N3CCOCC3(C)C)nn1-c1ccsc1)CO2` [Compound 61, (3,3-dimethylmorpholino)(8-(2-fluoropyridin-3-yl)-7-methoxy-1-(thiophen-3-yl)-1,4-dihydrochromeno[4,3-c]pyrazol-3-yl)methanone], the concentration giving a half-maximal response (EC50) in assay [1] is less than 10 nM; in assay [2] it was 10 to 100 nM.

With `COc1cc2c(cc1-c1cccc(O)c1)-c1c(c(C(=O)N(C)C(C)(C)C)nn1-c1cc(Cl)cc(Cl)c1)CO2` [Compound 22, N-tert-butyl-1-(3,5-dichlorophenyl)-8-(3-hydroxyphenyl)-7-methoxy-N-methyl-1,4-dihydrochromeno[4,3-c]pyrazole-3-carboxamide], the EC50 in assay [1] was less than 10 nM; in assay [2], 10 to 100 nM.

As for `COc1cc(Cl)cc(-n2nc(C(=O)N3CCOCC3(C)C)c3c2-c2cc(-c4cnn(CC(=O)O)c4)c(OC)cc2OC3)c1` [Compound 86, 2-(4-(1-(3-chloro-5-methoxyphenyl)-3-(3,3-dimethylmorpholine-4-carbonyl)-7-methoxy-1,4-dihydrochromeno[4,3-c]pyrazol-8-yl)-1H-pyrazol-1-yl)acetic acid], the results for the EC50 in assay [1] and in assay [2] were less than 10 nM and 101 to 500 nM, respectively.

For `COc1cc(OC)cc(-n2nc(C(=O)N3CC[S+]([O-])CC3(C)C)c3c2-c2cc(-c4cccnc4F)c(OC)cc2OC3)c1` (stereo not drawn) [Compound 40, (1-(3,5-dimethoxyphenyl)-8-(2-fluoropyridin-3-yl)-7-methoxy-1,4-dihydrochromeno[4,3-c]pyrazol-3-yl)(S-oxo-3,3-dimethylthiomorpholino)methanone], the concentration giving a half-maximal response (EC50) in assay [1] was less than 10 nM; in assay [2], 10 to 100 nM.
